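Five concentrations, 48 hours, 96-well plates. GI50: concentration for 50% inhibition of growth.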 Active and inactive are the calls of the source. No stated cut-off is given here; in the data, active = GI50 up to about 1.1 µM and inactive = higher.
Key:
Test in all cases: NCI anticancer screen, dose series, 48 h
CCRF-CEM = tested on: CCRF-CEM
OVCAR-4 = tested on: OVCAR-4
M14 = tested on: M14
RPMI-8226 = tested on: RPMI-8226
COLO 205 = tested on: COLO 205
NCI-H23 = tested on: NCI-H23
Malme-3M = tested on: Malme-3M
K562 = tested on: K562
SNB-19 = tested on: SNB-19
SF-268 = tested on: SF-268
OVCAR-8 = tested on: OVCAR-8
U-251 = tested on: U-251
ACHN = tested on: ACHN
RXF 393 = tested on: RXF 393
SK-OV-3 = tested on: SK-OV-3
SNB-75 = tested on: SNB-75

Measured: GI50

COC(=O)C(=O)C(C(=O)C(=O)Nc1cc(C)ccc1C)c1nc2ccc(C(=O)c3ccccc3)cc2nc1O (stereo not given)
inactive: CCRF-CEM 42.2 µM | OVCAR-4 > 100 µM | M14 > 100 µM | RPMI-8226 94.2 µM | COLO 205 > 100 µM | NCI-H23 > 100 µM | Malme-3M > 100 µM | K562 31 µM | SNB-19 > 100 µM | SF-268 > 100 µM | OVCAR-8 > 100 µM | U-251 > 100 µM | ACHN > 100 µM | RXF 393 46.3 µM

CC(C)NCCCC(C)Nc1ccnc2ccc3nn(C)nc3c12 (stereo not given)
inactive: SK-OV-3 > 100 µM | CCRF-CEM 41.9 µM | M14 38.8 µM | RPMI-8226 74.8 µM | COLO 205 28.3 µM | NCI-H23 > 100 µM | Malme-3M 63 µM | K562 33.2 µM | SNB-19 > 100 µM | SF-268 96.8 µM | OVCAR-8 43.6 µM | U-251 > 100 µM | SNB-75 > 100 µM | ACHN 61.2 µM

COc1cc(Cl)cc(N(O)C(C)=O)c1OCc1ccccc1
inactive: SK-OV-3 74 µM | CCRF-CEM 38.1 µM | OVCAR-4 > 100 µM | M14 > 100 µM | RPMI-8226 96.6 µM | COLO 205 > 100 µM | NCI-H23 > 100 µM | Malme-3M > 100 µM | K562 75.9 µM | SNB-19 80.9 µM | SF-268 44.8 µM | OVCAR-8 70.8 µM | U-251 80.4 µM | SNB-75 24.8 µM | ACHN 63.4 µM | RXF 393 > 100 µM

N#CC(C(=O)/C(=N/NC(=O)c1ccccc1O)C(C#N)c1ccccc1)c1ccccc1 (stereo not given)
inactive: SK-OV-3 > 100 µM | OVCAR-4 > 100 µM | M14 > 100 µM | RPMI-8226 > 100 µM | COLO 205 > 100 µM | NCI-H23 > 100 µM | Malme-3M > 100 µM | SF-268 > 100 µM | OVCAR-8 > 100 µM | U-251 > 100 µM | SNB-75 > 100 µM | ACHN > 100 µM | RXF 393 > 100 µM

C=C1CC(CC(=O)C(C)CC2CC(=C)C(=O)O2)OC1=O (stereo not given)
inactive: SK-OV-3 > 100 µM | CCRF-CEM 6.3 µM | OVCAR-4 16.4 µM | M14 15.8 µM | COLO 205 13.6 µM | NCI-H23 18.8 µM | Malme-3M 14.5 µM | K562 22.7 µM | SNB-19 > 100 µM | SF-268 22.4 µM | OVCAR-8 28 µM | U-251 71.4 µM | SNB-75 61.4 µM | ACHN 18.6 µM | RXF 393 18.7 µM

Cc1nc(N)sc1C(=O)/C=C/c1ccc([N+](=O)[O-])cc1
inactive: SK-OV-3 > 100 µM | CCRF-CEM > 100 µM | RPMI-8226 > 100 µM | COLO 205 > 100 µM | NCI-H23 > 100 µM | Malme-3M > 100 µM | K562 > 100 µM | SNB-19 > 100 µM | SF-268 > 100 µM | OVCAR-8 > 100 µM | U-251 > 100 µM | SNB-75 64.6 µM | RXF 393 > 100 µM

CCOC(=O)c1c2ccc(/C=C/C(=O)OC)ccc-2c(C(=O)OCC)c1N
inactive: SK-OV-3 > 100 µM | CCRF-CEM > 100 µM | OVCAR-4 > 100 µM | M14 > 100 µM | COLO 205 > 100 µM | NCI-H23 > 100 µM | Malme-3M > 100 µM | K562 > 100 µM | SNB-19 > 100 µM | SF-268 2.11 µM | SNB-75 > 100 µM | ACHN > 100 µM | RXF 393 > 100 µM

COC(=O)C(C(=O)Cc1ccccc1[N+](=O)[O-])C(=O)OC
inactive: SK-OV-3 > 100 µM | CCRF-CEM 74.6 µM | OVCAR-4 > 100 µM | M14 > 100 µM | COLO 205 > 100 µM | NCI-H23 > 100 µM | Malme-3M > 100 µM | SNB-19 > 100 µM | SF-268 > 100 µM | OVCAR-8 > 100 µM | SNB-75 > 100 µM | ACHN > 100 µM | RXF 393 > 100 µM

COc1cc2c(cn1)[nH]c1ccccc12
inactive: SK-OV-3 > 100 µM | CCRF-CEM > 100 µM | OVCAR-4 > 100 µM | M14 > 100 µM | RPMI-8226 > 100 µM | COLO 205 > 100 µM | NCI-H23 > 100 µM | Malme-3M > 100 µM | K562 > 100 µM | SNB-19 > 100 µM | SF-268 88.1 µM | OVCAR-8 > 100 µM | U-251 > 100 µM | SNB-75 55.8 µM | ACHN > 100 µM

NC(=S)N/N=C1/C(=O)N(c2ccc(Cl)cc2Cl)C(=O)C(=O)C1c1nc2ccccc2s1 (stereo not given)
inactive: SK-OV-3 > 100 µM | OVCAR-4 > 100 µM | M14 > 100 µM | RPMI-8226 > 100 µM | COLO 205 > 100 µM | NCI-H23 > 100 µM | Malme-3M > 100 µM | K562 > 100 µM | SNB-19 > 100 µM | SF-268 > 100 µM | OVCAR-8 > 100 µM | U-251 > 100 µM | SNB-75 > 100 µM | ACHN > 100 µM | RXF 393 > 100 µM

NC(=S)N/N=C/C(=C/Nc1ccccc1)[N+](=O)[O-]
inactive: SK-OV-3 > 100 µM | CCRF-CEM > 100 µM | OVCAR-4 > 100 µM | M14 > 100 µM | RPMI-8226 > 100 µM | COLO 205 > 100 µM | NCI-H23 > 100 µM | Malme-3M > 100 µM | K562 > 100 µM | SNB-19 > 100 µM | SF-268 > 100 µM | OVCAR-8 > 100 µM | SNB-75 > 100 µM | ACHN > 100 µM | RXF 393 > 100 µM

O=C(Nc1cc(Cl)cc(Cl)c1)/C(Cc1nc2ccccc2nc1O)=N/NC(=O)c1ccncc1
inactive: SK-OV-3 > 100 µM | CCRF-CEM > 100 µM | OVCAR-4 > 100 µM | M14 > 100 µM | RPMI-8226 > 100 µM | COLO 205 > 100 µM | Malme-3M > 100 µM | K562 > 100 µM | SNB-19 > 100 µM | OVCAR-8 > 100 µM | U-251 > 100 µM | ACHN > 100 µM

CN(C)CC1CCC(CN(C)C)C1=NO (stereo not given)
inactive: CCRF-CEM > 100 µM | OVCAR-4 > 100 µM | M14 > 100 µM | RPMI-8226 > 100 µM | COLO 205 > 100 µM | Malme-3M > 100 µM | K562 > 100 µM | SF-268 > 100 µM | OVCAR-8 > 100 µM | SNB-75 > 10 µM | ACHN > 100 µM | RXF 393 > 100 µM

CC(C)N1CCOC(c2ccc(O)c(O)c2)C1 (stereo not given)
inactive: SK-OV-3 > 100 µM | CCRF-CEM > 100 µM | OVCAR-4 > 100 µM | M14 > 100 µM | RPMI-8226 > 100 µM | COLO 205 > 100 µM | NCI-H23 > 100 µM | Malme-3M > 100 µM | K562 > 100 µM | SNB-19 > 100 µM | SF-268 > 100 µM | OVCAR-8 > 100 µM | SNB-75 > 100 µM | ACHN > 100 µM | RXF 393 > 100 µM

Reference: ChEMBL document CHEMBL1201862, “PubChem BioAssay data set” (2004)
